Data taken from patent US20060116410A1, “4-Aminomethyl benzamidine derivatives” (priority 2004, published 2006).
Counter-ions that a name gives are not always drawn.

These molecules were tested against T1, factor VIIa/tissue factor complex (Homo sapiens, UniProt P08709) (assay: Inhibition of amidolytic activity of factor VIIa/tissue factor complex, chromogenic substrate Chromozym-tPA). Details: 26 nM tissue factor, 9 nM soluble factor VIIa, room temperature, pH 7.5.
T1 construct: 9 nM of soluble factor VIIa
T1 sequence (P08709 213-466 limits assumed): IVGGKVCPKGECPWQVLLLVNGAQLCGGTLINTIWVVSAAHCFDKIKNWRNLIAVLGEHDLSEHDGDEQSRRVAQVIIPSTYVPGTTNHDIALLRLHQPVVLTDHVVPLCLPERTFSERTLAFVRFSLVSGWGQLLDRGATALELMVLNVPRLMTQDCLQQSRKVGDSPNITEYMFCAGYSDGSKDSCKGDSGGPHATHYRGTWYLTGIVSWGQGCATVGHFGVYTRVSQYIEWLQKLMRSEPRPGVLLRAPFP
T1 sequence (P08709 61-212 limits assumed): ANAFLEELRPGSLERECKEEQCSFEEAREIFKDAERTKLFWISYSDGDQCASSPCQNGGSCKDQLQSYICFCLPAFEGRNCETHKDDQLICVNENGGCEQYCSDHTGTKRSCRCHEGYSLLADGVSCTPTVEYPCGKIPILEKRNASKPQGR
T1 sequence (P13726 33-295 partner): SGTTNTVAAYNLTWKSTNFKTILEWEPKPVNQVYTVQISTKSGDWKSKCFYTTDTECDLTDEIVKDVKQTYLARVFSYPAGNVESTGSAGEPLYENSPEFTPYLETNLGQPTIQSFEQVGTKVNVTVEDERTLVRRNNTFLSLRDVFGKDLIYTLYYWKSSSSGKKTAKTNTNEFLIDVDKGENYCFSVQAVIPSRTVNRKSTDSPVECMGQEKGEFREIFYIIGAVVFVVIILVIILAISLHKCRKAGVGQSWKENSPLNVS
Type: biochemical
Method: Measurements were carried out by an automated robotic assay on microtitre plates at room temperature. To this end, 100 μl of a solution of 26 nM of tissue factor, 9 nM of soluble factor VIIa and 8 mM of calcium chloride were added to 25 μl of a solution of the inhibitor in a buffer [pH 7.5, 100 mM, comprising 0.14M NaCl, 0.1M N-(2-hydroxyethyl)piperazine-N′-(2-ethanesulphonic acid) (HEPES), 0.5 mg/l of fatty-acid-free BSA (bovine serum albumin) and 0.05% NaN3] in each well of the plate. After an incubation time of 15 minutes the reaction was started by the addition of 50 μl of chromogenic substrate Chromozym-tPA (3.5 mM, MeSO2-D-Phe-Gly-Arg-paranitroamlide) and the hydrolysis of the substrate was followed spectrophotometrically on a kinetic microtitre plate reader over 10 minutes. Using the plot of the inhibition curves, the Ki values were determined according to the method described in Biochem. J. 55, 1953, 170-171.

Compound	Ki
CNC(=O)COc1cc(C(=N)N)ccc1CNC(=O)c1cc(Cl)cc(Cl)c1 [Example 18.2, N-(4-carbamimidoyl-2-methylcarbamoylmethoxy-benzyl)-3,5-dichloro-benzamide hydrochloride]	62 nM
CCOC(=O)CNc1cc(C(=N)N)ccc1CNC(=O)c1cccc(C)c1 [Example 24.1, {5-carbamimidoyl-2-[(3-methyl-benzoylamino)-methyl]-phenylamino}-acetic acid ethyl ester hydrochloride]	81 nM
Cc1cc(C(=O)NCc2ccc(C(=N)N)cc2OCCNC(=O)c2ccccc2F)ccc1F [Example 42.2, N-{4-carbamimidoyl-2-[2-(2-fluoro-benzoylamino)-ethoxy]-benzyl}-4-fluoro-3-methyl-benzamide hydrochloride]	51 nM
